In PubChem BioAssay (NCI):
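96-well plates; 48 h exposure; 5 concentrations. Endpoints by linear interpolation between flanking doses. Not reached: highest tested concentration assigned. At the TGI there is no net growth.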

Key:
Test in all cases: growth of human tumour cells (NCI), 48 h
DU-145 prostate = system: DU-145 prostate
HOP-62 NSCLC = system: HOP-62 NSCLC
UACC-257 melanoma = system: UACC-257 melanoma
OVCAR-3 ovarian = system: OVCAR-3 ovarian
M14 melanoma = system: M14 melanoma
HS 578T breast = system: HS 578T breast
SNB-19 CNS = system: SNB-19 CNS
HT29 colon = system: HT29 colon
TK-10 renal = system: TK-10 renal
IGROV1 ovarian = system: IGROV1 ovarian

In the case of `O=C(NCCN1CCOCC1)c1ccc2cc(C(=O)N3CC(CCl)c4ccc([N+](=O)[O-])cc43)[nH]c2c1` (stereo not given), the TGI (DU-145 prostate) is reported as 49.3 µM, the TGI (HOP-62 NSCLC) is reported as 30.8 µM and the TGI (UACC-257 melanoma) is reported as 86.8 µM. The TGI (OVCAR-3 ovarian) was 33.1 µM, the TGI (M14 melanoma) was > 100 µM and the TGI (HS 578T breast) was 52.4 µM. It also gave a TGI (SNB-19 CNS) of 28.8 µM, a TGI (HT29 colon) of 24.7 µM and a TGI (TK-10 renal) of 36.6 µM. For the same molecule, the TGI (IGROV1 ovarian) was > 100 µM.
`CO[C@]12CC(=O)C3(C(C[C@H]4CC5CC=C6C[C@@H](OC(C)=O)CC[C@]6(OC(C)=O)C5C[C@@]43C)C1)C1C[C@H]3[C@@H]4CC=C5C[C@@H](OC(C)=O)CC[C@]5(OC(C)=O)[C@H]4CC[C@]3(C)C12` (stereo not given in full) was tested, and the TGI (DU-145 prostate) was 41.4 µM, the TGI (HOP-62 NSCLC) was 37.9 µM and the TGI (UACC-257 melanoma) was > 100 µM. It also gave a TGI (OVCAR-3 ovarian) of 56.4 µM, a TGI (M14 melanoma) of 47.2 µM and a TGI (HS 578T breast) of 88.9 µM. The TGI (SNB-19 CNS) was 63.6 µM, the TGI (HT29 colon) was 29.5 µM and the TGI (TK-10 renal) was > 100 µM. The TGI (IGROV1 ovarian) was 42.8 µM.
With `COc1cc(NS(C)(=O)=O)ccc1N1Cc2cnc3ccc4[nH]c(C)cc1c4c23` the TGI (DU-145 prostate) was > 100 µM, the TGI (HOP-62 NSCLC) was 71.9 µM and the TGI (UACC-257 melanoma) was > 100 µM. For the same molecule, the TGI (OVCAR-3 ovarian) was > 100 µM, the TGI (M14 melanoma) was > 100 µM and the TGI (HS 578T breast) was > 100 µM. For the same molecule, the TGI (SNB-19 CNS) was 32.7 µM, the TGI (HT29 colon) was > 100 µM and the TGI (TK-10 renal) was > 100 µM. For the same molecule, the TGI (IGROV1 ovarian) was > 100 µM.
For `Cc1c2c(n(CCc3ccc(Cl)cc3)c1C)NN=C(C#N)S2(=O)=O`, the TGI (DU-145 prostate) was > 100 µM, the TGI (HOP-62 NSCLC) was > 100 µM and the TGI (UACC-257 melanoma) was > 100 µM. For the same molecule, the TGI (OVCAR-3 ovarian) was > 100 µM, the TGI (M14 melanoma) was > 100 µM and the TGI (HS 578T breast) was > 100 µM. The TGI (SNB-19 CNS) was > 100 µM, the TGI (HT29 colon) was > 100 µM and the TGI (TK-10 renal) was > 100 µM. For the same molecule, the TGI (IGROV1 ovarian) was > 100 µM.
`C=CCn1c(=O)ccn(COCCO)c1=O` was tested, and the TGI (DU-145 prostate) was > 100 µM, the TGI (HOP-62 NSCLC) was > 100 µM and the TGI (UACC-257 melanoma) was > 100 µM. The TGI (OVCAR-3 ovarian) was > 100 µM, the TGI (M14 melanoma) was > 100 µM and the TGI (HS 578T breast) was > 100 µM. The TGI (SNB-19 CNS) was > 100 µM, the TGI (HT29 colon) was > 100 µM and the TGI (TK-10 renal) was > 100 µM. For the same molecule, the TGI (IGROV1 ovarian) was > 100 µM.
For `COc1ccc(C2(CC(C)O)SCCCS2)cc1` (stereo not given), the TGI (DU-145 prostate) was > 100 µM, the TGI (HOP-62 NSCLC) was > 100 µM and the TGI (UACC-257 melanoma) was > 100 µM. For the same molecule, the TGI (OVCAR-3 ovarian) was > 100 µM, the TGI (M14 melanoma) was > 100 µM and the TGI (HS 578T breast) was > 100 µM. For the same molecule, the TGI (SNB-19 CNS) was > 100 µM, the TGI (HT29 colon) was > 100 µM and the TGI (TK-10 renal) was > 100 µM. The TGI (IGROV1 ovarian) was > 100 µM.
`COc1cc(C2SCC(=O)N2c2ccc(NC(=O)c3ccc(N4C(=O)CSC4c4cc(OC)c(OC)c(OC)c4)cc3)cc2)cc(OC)c1OC` (stereo not given) was tested, and the TGI (DU-145 prostate) was > 100 µM, the TGI (HOP-62 NSCLC) was > 100 µM and the TGI (UACC-257 melanoma) was > 100 µM. The TGI (OVCAR-3 ovarian) was > 100 µM, the TGI (M14 melanoma) was > 100 µM and the TGI (HS 578T breast) was > 100 µM. The TGI (SNB-19 CNS) was > 100 µM, the TGI (HT29 colon) was > 100 µM and the TGI (TK-10 renal) was > 100 µM. For the same molecule, the TGI (IGROV1 ovarian) was > 100 µM.
`CC(C)COP(=O)(OCC(C)C)C(NS(=O)(=O)c1ccccc1)(C(F)(F)F)C(F)(F)F` was tested, and the TGI (DU-145 prostate) was 29.8 µM, the TGI (HOP-62 NSCLC) was 35.1 µM and the TGI (UACC-257 melanoma) was 17.5 µM. The TGI (OVCAR-3 ovarian) was 23.8 µM, the TGI (M14 melanoma) was 43.2 µM and the TGI (HS 578T breast) was 97.9 µM. The TGI (SNB-19 CNS) was 54.1 µM, the TGI (HT29 colon) was 25.4 µM and the TGI (TK-10 renal) was 15.6 µM. For the same molecule, the TGI (IGROV1 ovarian) was 16.8 µM.
`CN(C)c1nc(=NCc2ccccc2)ss1` was tested, and the TGI (DU-145 prostate) was > 10 µM, the TGI (HOP-62 NSCLC) was > 10 µM and the TGI (UACC-257 melanoma) was > 10 µM. For the same molecule, the TGI (OVCAR-3 ovarian) was > 10 µM, the TGI (M14 melanoma) was > 10 µM and the TGI (HS 578T breast) was > 10 µM. The TGI (SNB-19 CNS) was > 10 µM, the TGI (HT29 colon) was > 10 µM and the TGI (TK-10 renal) was > 10 µM. The TGI (IGROV1 ovarian) was > 10 µM.
`O=C1CN2C(c3ccccc3)=NN(c3ccc([N+](=O)[O-])cc3)C2(c2ccccc2)c2cc(Cl)ccc2N1CC1CC1` (stereo not given) was tested, and the TGI (DU-145 prostate) was > 100 µM, the TGI (HOP-62 NSCLC) was > 100 µM and the TGI (UACC-257 melanoma) was > 100 µM. The TGI (OVCAR-3 ovarian) was > 100 µM, the TGI (M14 melanoma) was > 100 µM and the TGI (HS 578T breast) was > 100 µM. The TGI (SNB-19 CNS) was > 100 µM, the TGI (HT29 colon) was > 100 µM and the TGI (TK-10 renal) was > 100 µM. The TGI (IGROV1 ovarian) was > 100 µM.
For `C1=CC2=CC=CC3c4nc5ccc6ccccc6c5nc4C(=C1)C23` (stereo not given), the TGI (DU-145 prostate) was > 100 µM, the TGI (HOP-62 NSCLC) was > 100 µM and the TGI (UACC-257 melanoma) was > 100 µM. For the same molecule, the TGI (OVCAR-3 ovarian) was > 100 µM, the TGI (M14 melanoma) was > 100 µM and the TGI (HS 578T breast) was > 100 µM. The TGI (SNB-19 CNS) was > 100 µM, the TGI (HT29 colon) was > 100 µM and the TGI (TK-10 renal) was > 100 µM. For the same molecule, the TGI (IGROV1 ovarian) was > 100 µM.
For `CC1CC[C@@]2(OC1)OC1C[C@H]3[C@@H]4CC[C@H]5CC(OC6OC(CO)C(OC7OC(CO)C(O)C(O)C7OC7OC(CO)C(O)C(O)C7O)C(O)C6O)CCC5(C)[C@H]4CCC3(C)C1[C@@H]2C` (stereo not given in full), the TGI (DU-145 prostate) was 1.81 µM, the TGI (HOP-62 NSCLC) was 3.65 µM and the TGI (UACC-257 melanoma) was 11.6 µM. The TGI (OVCAR-3 ovarian) was 5.94 µM, the TGI (M14 melanoma) was 10.4 µM and the TGI (HS 578T breast) was 7.44 µM. For the same molecule, the TGI (SNB-19 CNS) was 10.3 µM, the TGI (HT29 colon) was 1.86 µM and the TGI (TK-10 renal) was 5.36 µM. For the same molecule, the TGI (IGROV1 ovarian) was 2.15 µM.
`C/C=C/C=C/c1nc(C#N)c(N)o1` was tested, and the TGI (DU-145 prostate) was > 100 µM, the TGI (HOP-62 NSCLC) was > 100 µM and the TGI (UACC-257 melanoma) was > 100 µM. For the same molecule, the TGI (OVCAR-3 ovarian) was > 100 µM, the TGI (M14 melanoma) was > 100 µM and the TGI (HS 578T breast) was > 100 µM. For the same molecule, the TGI (SNB-19 CNS) was > 100 µM, the TGI (HT29 colon) was > 100 µM and the TGI (TK-10 renal) was > 100 µM. For the same molecule, the TGI (IGROV1 ovarian) was > 100 µM.
For `CC(=O)N/N=C1\NC(=O)C[C@H]2[C@@H]3CC=C4C[C@@H](OC(C)=O)CC[C@]4(C)[C@H]3CC[C@]12C`, the TGI (DU-145 prostate) was > 100 µM, the TGI (HOP-62 NSCLC) was 32.5 µM and the TGI (UACC-257 melanoma) was > 100 µM. The TGI (OVCAR-3 ovarian) was > 100 µM, the TGI (M14 melanoma) was > 100 µM and the TGI (HS 578T breast) was 88.6 µM. The TGI (SNB-19 CNS) was 39.9 µM, the TGI (HT29 colon) was > 100 µM and the TGI (TK-10 renal) was 41.7 µM. The TGI (IGROV1 ovarian) was > 100 µM.
With `O=c1c2cc3c(cc2[nH]c2ncccc12)OCO3` the TGI (DU-145 prostate) was > 10 µM, the TGI (HOP-62 NSCLC) was > 10 µM and the TGI (UACC-257 melanoma) was > 10 µM. For the same molecule, the TGI (OVCAR-3 ovarian) was > 10 µM, the TGI (M14 melanoma) was > 10 µM and the TGI (HS 578T breast) was > 10 µM. For the same molecule, the TGI (SNB-19 CNS) was > 10 µM, the TGI (HT29 colon) was > 10 µM and the TGI (TK-10 renal) was > 10 µM. For the same molecule, the TGI (IGROV1 ovarian) was > 10 µM.
In the case of `COc1ccc2cc3c4cc5c(cc4cc[n+]3cc2c1OC)OCO5`, the TGI (DU-145 prostate) is reported as > 100 µM, the TGI (HOP-62 NSCLC) is reported as 64.3 µM and the TGI (UACC-257 melanoma) is reported as 30.4 µM. The TGI (OVCAR-3 ovarian) was 21.4 µM, the TGI (M14 melanoma) was 68 µM and the TGI (HS 578T breast) was 31.3 µM. The TGI (SNB-19 CNS) was 39.6 µM, the TGI (HT29 colon) was > 100 µM and the TGI (TK-10 renal) was 83.2 µM. For the same molecule, the TGI (IGROV1 ovarian) was > 32.7 µM.
For `O=c1cc(N=P(c2ccccc2)(c2ccccc2)c2ccccc2)n(-c2ccccc2)c(=O)n1-c1ccccc1`, the TGI (DU-145 prostate) was > 100 µM, the TGI (HOP-62 NSCLC) was 32.4 µM and the TGI (UACC-257 melanoma) was > 100 µM. The TGI (OVCAR-3 ovarian) was 32.3 µM, the TGI (M14 melanoma) was > 100 µM and the TGI (HS 578T breast) was 58 µM. The TGI (SNB-19 CNS) was 63.5 µM, the TGI (HT29 colon) was > 100 µM and the TGI (TK-10 renal) was > 100 µM. The TGI (IGROV1 ovarian) was 58.8 µM.
